In patent publication US20260224563A1, “CRYSTALLINE FORMS OF 6-(3-((5-CHLORO-2-METHOXYPYRIDINE)-3-SULFONAMIDO)-2,6-DIFLUOROPHENYL)-N-METHYLIMIDAZO[1,5-A]PYRAZINE-1-CARBOXAMIDE AND METHODS FOR USING THE SAME” (HIBERCELL, INC., priority 2023, published 2026):
Structures can show the parent of a compound that is named as a salt.

What was measured:
[1] = Pharmacokinetics of HC-7366 in male and female beagle dogs following IV and oral administration of HC-7366-K (plasma and urine, LC-MS/MS); type: in vivo, Beagle Dog; design: AUC(0-t)/D: unit not given here
[2] = Solid-state stability (60° C./closed and 40° C./75% relative humidity open, up to seven days; HPLC purity, XRPD); type: physicochemical
Method: HPLC method for stability and solubility testing is listed below.
• Column: Ascentis® Express C18 4.6*150 mm*2.7 μm • Mobile Phase A: 0.05% trifluoroacetic acid in water • Mobile Phase B: Methanol • Gradient (T/B %): 0/10, 10/100, 13.5/10, 15/10 • Column Temperature: 40° C. • Detector: DAD; 220 nm • Flow rate: 1.0 mL/min • Injection volume: 1 μL • Concentration: 1 mg/mL • Run time: 15 minutes • Diluent: Methanol:Water 9:1 (v/v)
The solid-state stability of Form III of the potassium salt was performed using the following protocol: • (1) A sample of Form III of the potassium salt was placed at 60° C./closed and 40° C./75% relative humidity (open) conditions for up to seven days. At the onset of the test (day 0) and day 7 of the test, the sample was dissolved in a diluent to prepare a 1 mg/mL solution for HPLC purity analysis. The solid sample was analyzed by XRPD to assess the crystal form of each solid at day 7. […] The XRPD data confirmed the physicochemical stability of Form III of the potassium salt under both closed and open conditions. […]

[3] = Water activity study of the crystalline potassium salt forms (acetone/water suspension, XRPD); type: physicochemical; settings: KF wt. %>0.19, 25-50° C., KF wt. %~0.1, 25° C. in acetone/water
Method: A water activity study of the potassium salt forms was conducted in two groups: (i) Form I and Form III of the potassium salt, and (ii) Form II and Form III of the potassium salt.
Each suspension was shaken at 700 rpm in a shaker at 25° C., 35° C., 45° C., and 50° C., and the sample was analyzed by XRPD.

[4] = Slurry study of potassium salt Form III in organic solvents and water (XRPD); type: physicochemical
Method: A slurry study of Form III of the potassium salt in an array of solvents was conducted at 25° C. and 50° C. Approximately 20 mg of Form III of the potassium salt was suspended in 0.5 mL of a solvent (EtOH, IPA, NBA, MEK, acetone, MTBE, EtOAc, IPAc, heptane, DCM, THE, MeCN, and water) and stirred at 25° C. or 50° C. for seven days. Then, the solid sample was collected by vacuum filtration and was analyzed by XRPD.

[5] = Mechanical (grinding) and tableting treatment of Form III of the potassium salt (XRPD); type: physicochemical
Method: Form III of the potassium salt was ground manually (e.g., using a mortar and pestle) for 5 minutes. The ground sample was then analyzed by XRPD. No change in the crystal form was observed.
Tableting treatment of Form III of the potassium salt was conducted at 35 MPa pressure for 10 seconds using a tablet machine (HY-12, Tianjin Tianguang Optical Instrument Co., Ltd). The resulting solid was analyzed by XRPD. No change in the crystal form was observed after the tableting treatment. However, the crystallinity of Form III of the potassium salt decreased after the pressure test.

SMILES: CNC(=O)c1ncn2cc(-c3c(F)ccc(NS(=O)(=O)c4cc(Cl)cnc4OC)c3F)ncc12 [HC-7366-K, 6-(3-((5-chloro-2-methoxypyridine)-3-sulfonamido)-2,6-difluorophenyl)-N-methylimidazo[1,5-a]pyrazine-1-carboxamide]
- AUC(0-t)/D ([1]; Female Beagle dog, IV 0.5 mg/kg, mean n = 3): 162284
- t1/2 ([1]; Male Beagle dogs, IV 0.5 mg/kg, HC-7366 in plasma, mean n = 3): 14 h
- clearance ([1]; dog, plasma, male beagle dogs, intravenous 0.5 mg/kg, read-out: Clearance (CL)): 6 mL/h/kg
- Vd ([1]; dog, plasma, male beagle dogs, intravenous 0.5 mg/kg, read-out: volume of distribution at steady state (Vss)): 0.107 L/kg
- CL renal ([1]; dog, urine and plasma, female Beagle dogs, intravenous 0.5 mg/kg, read-out: Renal Clearance): 0.0066 mL/h/kg

SMILES: CNC(=O)c1ncn2cc(-c3c(F)ccc(NS(=O)(=O)c4cc(Cl)cnc4OC)c3F)ncc12 [Potassium salt Form III, 6-(3-((5-chloro-2-methoxypyridine)-3-sulfonamido)-2,6-difluorophenyl)-N-methylimidazo[1,5-a]pyrazine-1-carboxamide]
- Purity (Area %) 220 nm ([2]; 0 day): 99.90 Area %
- XRPD After 7 Days ([2]; 40° C./75% RH (open)): Unchanged
- Purity (Area %) 220 nm ([2]; 40° C./75% RH (open), 7 days): 99.90 Area %
- Purity (Area %) 220 nm ([2]; 60° C./closed, 7 days): 99.90 Area %
- XRPD After 7 Days ([2]; 60° C./closed, 7 days): Unchanged
- physical and chemical stability ([2]; both closed (60° C.) and open (40° C./75% RH) conditions for seven days): maintained physical and chemical stability
- Relative stability of crystalline forms ([3]; versus Form I of the potassium salt): more stable
- Relative stability of crystalline forms ([3]; versus Form II of the potassium salt): more stable
- Result at 3 days (XRPD) ([4]; slurry in Acetone, 25° C.): Potassium salt Form III
- Result at 7 days (XRPD) ([4]; slurry in Acetone, 25° C.): Potassium salt Form III
- Result at 3 days (XRPD) ([4]; slurry in DCM, 25° C.): Potassium salt Form III
- Result at 7 days (XRPD) ([4]; slurry in DCM, 25° C.): Potassium salt Form III
- Result at 3 days (XRPD) ([4]; slurry in DCM, 50° C.): Potassium salt Form III
- Result at 7 days (XRPD) ([4]; slurry in DCM, 50° C.): Potassium salt Form III
- Result at 3 days (XRPD) ([4]; slurry in EtOAc, 25° C.): Potassium salt Form III
- Result at 7 days (XRPD) ([4]; slurry in EtOAc, 25° C.): Potassium salt Form III
- Result at 3 days (XRPD) ([4]; slurry in EtOAc, 50° C.): Potassium salt Form III
- Result at 7 days (XRPD) ([4]; slurry in EtOAc, 50° C.): Potassium salt Form III
- Result at 3 days (XRPD) ([4]; slurry in Heptane, 25° C.): Potassium salt Form III
- Result at 7 days (XRPD) ([4]; slurry in Heptane, 25° C.): Potassium salt Form III
- Result at 3 days (XRPD) ([4]; slurry in Heptane, 50° C.): Potassium salt Form III
- Result at 7 days (XRPD) ([4]; slurry in Heptane, 50° C.): Potassium salt Form III
- Result at 3 days (XRPD) ([4]; slurry in IPA, 25° C.): Potassium salt Form III
- Result at 7 days (XRPD) ([4]; slurry in IPA, 25° C.): Potassium salt Form III
- Result at 3 days (XRPD) ([4]; slurry in IPA, 50° C.): Potassium salt Form I
- Result at 7 days (XRPD) ([4]; slurry in IPA, 50° C.): Potassium salt Form I
- Result at 3 days (XRPD) ([4]; slurry in IPAc, 25° C.): Potassium salt Form III
- Result at 7 days (XRPD) ([4]; slurry in IPAc, 25° C.): Potassium salt Form III
- Result at 3 days (XRPD) ([4]; slurry in IPAc, 50° C.): Potassium salt Form III
- Result at 7 days (XRPD) ([4]; slurry in IPAc, 50° C.): Potassium salt Form III
- Result at 3 days (XRPD) ([4]; slurry in MEK, 25° C.): Potassium salt Form III
- Result at 7 days (XRPD) ([4]; slurry in MEK, 25° C.): Potassium salt Form III
- Result at 3 days (XRPD) ([4]; slurry in MEK, 50° C.): Potassium salt Form III
- Result at 7 days (XRPD) ([4]; slurry in MEK, 50° C.): Potassium salt Form III
- Result at 3 days (XRPD) ([4]; slurry in MTBE, 25° C.): Potassium salt Form III
- Result at 7 days (XRPD) ([4]; slurry in MTBE, 25° C.): Potassium salt Form III
- Result at 3 days (XRPD) ([4]; slurry in MTBE, 50° C.): Potassium salt Form III
- Result at 7 days (XRPD) ([4]; slurry in MTBE, 50° C.): Potassium salt Form III
- Result at 3 days (XRPD) ([4]; slurry in MeCN, 25° C.): Potassium salt Form III
- Result at 7 days (XRPD) ([4]; slurry in MeCN, 25° C.): Potassium salt Form III
- Result at 3 days (XRPD) ([4]; slurry in MeCN, 50° C.): Potassium salt Form I
- Result at 7 days (XRPD) ([4]; slurry in MeCN, 50° C.): Potassium salt Form I
- Result at 3 days (XRPD) ([4]; slurry in NBA, 25° C.): Potassium salt Form III
- Result at 7 days (XRPD) ([4]; slurry in NBA, 25° C.): Potassium salt Form III
- Result at 3 days (XRPD) ([4]; slurry in NBA, 50° C.): Potassium salt Form III
- Result at 7 days (XRPD) ([4]; slurry in NBA, 50° C.): Potassium salt Form III
- Result at 7 days (XRPD) ([4]; slurry in THF, 25° C.): Potassium salt Form III
- Result at 7 days (XRPD) ([4]; slurry in THF, 50° C.): Potassium salt Form III
- Crystallinity ([5]; after tableting treatment at 35 MPa pressure for 10 seconds): decreased
- Change in the crystal form (XRPD) ([5]; ground manually for 5 minutes): No change
- Change in the crystal form (XRPD) ([5]; tableting treatment at 35 MPa pressure for 10 seconds): No change
